Common to all, as to type: biochemical
One experiment deals with T1, Human recombinant MMP-1 (Homo sapiens, UniProt P03956).
T1 construct: made in house; host or cells: MMP-1-transfected HT-1080 cells (spent media)
T1 sequence (P03956 100-469): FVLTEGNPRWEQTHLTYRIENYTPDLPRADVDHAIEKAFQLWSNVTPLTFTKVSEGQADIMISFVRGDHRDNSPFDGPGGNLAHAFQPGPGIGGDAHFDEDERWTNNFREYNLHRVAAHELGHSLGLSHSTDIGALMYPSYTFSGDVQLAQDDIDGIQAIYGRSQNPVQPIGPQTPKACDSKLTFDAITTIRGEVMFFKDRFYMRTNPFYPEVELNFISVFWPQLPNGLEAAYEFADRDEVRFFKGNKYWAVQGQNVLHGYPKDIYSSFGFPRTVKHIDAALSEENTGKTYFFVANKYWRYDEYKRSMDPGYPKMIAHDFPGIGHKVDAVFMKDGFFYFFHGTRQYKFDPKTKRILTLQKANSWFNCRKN
As to the kind of experiment: In vitro MMP inhibition, Ki determination (fluorogenic substrate II). On the procedure:
(§1) Several hydroxamates and salts thereof were analyzed in in vitro assays to determine their ability to inhibit the MMP cleavage of peptide substrates. Inhibition (Ki) and IC50 constants were calculated from the assayed hydroxamate-MMP interactions.
(§2) Human recombinant MMP-1, MMP-2, MMP-9, MMP-13, and MMP-14 were used in this assay. All enzymes were prepared in Assignee's laboratories following usual laboratory procedures. Protocols for the preparation and use of these enzymes are available in the scientific literature. See, e.g., Enzyme Nomenclature (Academic Press, San Diego, Calif., 1992) (and the citations therein). See also, Frije et al., J. Biol. Chem., 26(24), 16766-73 (1994).
The MMP-1 proenzyme was purified from the spent media of MMP-1-transfected HT-1080 cells provided by Dr. Harold Welgus of Washington University (St. Louis, Mo.). The protein was purified on a zinc chelating column.
(§3) All MMPs were activated using 4-aminophenylmercuric acetate (“APMA”, Sigma Chemical, St. Louis, Mo.) or trypsin. MMP-9 also was activated using human recombinant MMP-3 (purified in Assignee's laboratory following standard cloning and purification techniques).
(§4) Two fluorogenic, methoxycoumarin-containing polypeptide substrates were used in the MMP inhibition assays:
(§5) MCA-ArgProLeuGlyLeuDpaAlaArgGluArgNH2 (II)
(§6) Here, “Dpa” is 3-(2,4-dinitrophenyl)-L-2,3-diaminopropionyl group, and “MCA” is 7-methoxycoumarin-4-yl acetyl. Substrate (I) was purchased from Baychem (Redwood City, Calif.), and substrate II was prepared Assignee's laboratory. Substrate I was used in the IC50 determination assays, while substrate II was used in the Ki determination assays. In the absence of MMP inhibitory activity, either substrate is cleaved at the Gly-Leu peptide bond. This cleavage separates the highly fluorogenic peptide from the 2,4-dinitrophenyl quencher, thus resulting in increase of fluorescent intensity.
(§7) The stock solutions of the assayed hydroxamates (or salts thereof) were prepared in 1% dimethyl sulfoxide (DMSO). These stock solutions were diluted in Buffer A (100 mM Tris-HCl, 100 mM NaCl, 10 mM CaCl2, 0.05% polyoxyethylene 23 lauryl ether, pH 7.5) to obtain solutions with different hydroxamate concentrations, i.e., assay solutions with different concentrations of the assayed MMP inhibitory compound. The experiment controls contained the same amount of Buffer A/DMSO as the assayed sample, but contained no hydroxamate (or salt thereof).
(§8) The assays from which the Ki determinations were made were performed as follows. The assayed hydroxamate samples were incubated in separate wells of untreated white polystyrene plates (Nunc Nalgene International, Rochester, N.Y.), and analyzed on a Tecan SpectraFlour Plus plate reader. The excitation wavelength was 330 nm, and the emission wavelength—420 nm. All samples (assayed hydroxamates and controls) were incubated in separate plate wells at room temperature for 1 hr in the presence of 4 μM of MMP substrate (II). In the absence of MMP inhibitory activity, substrate II was cleaved at the Gly-Leu bond resulting in an increase of relative fluorescence. Inhibition was observed as a reduced rate of this increase in relative fluorescence. The various hydroxamates were analyzed using a single low enzyme concentration with a single substrate concentration fixed at or below the Km. This protocol is a modification of method by Knight et al., FEBS Lett., 296(3), 263-266 (1992). Apparent inhibitory constants were determined by non-linear regression of reaction velocity as a function of inhibitor and enzyme concentration using Morrison's equation, as described by Kuzmic, Anal. Biochem. 286, 45-50 (2000). Modifications were made in the non-linear regression method to allow a common control reaction rate and effective enzyme concentration to be shared between all dose-response relationships on a given assay plate. […]

The target in experiment [1] is T2, Human recombinant MMP-14 (Homo sapiens, UniProt P50281).
T2 construct: The catalytic domain enzyme was expressed in E. coli inclusion bodies, solubilized in urea; made in house
The description is as above. On the procedure: as §1, §2
The MMP-14 full length cDNA was provided by Dr. Gregory Goldberg of Washington University (St. Louis, Mo.). The catalytic domain enzyme was expressed in E. coli inclusion bodies, solubilized in urea, purified on a preparative […] reverse phase HPLC column, and then refolded in the presence of zinc acetate and purified for use.
as §3, §4, §5, §6, §7, §8

The next experiment addresses T3, Human recombinant MMP-9 (Homo sapiens, UniProt P14780).
T3 construct: made in house; host or cells: MMP-9-transfected HT1080 cells (spent media)
Described as above. As for the experimental part:
as §1, §2
The MMP-9 proenzyme was purified by gelatin Sepharose chromatography from spent media of MMP-9-transfected HT1080 cells provided by Dr. Howard Welgus of Washington University (St. Louis, Mo.).
as §3, §4, §5, §6, §7, §8

In experiment [2] the target is T2, Human recombinant MMP-14. As to the kind of experiment: In vitro MMP inhibition, IC50 determination (fluorogenic substrate I). A digest of the protocol:
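IC50 came from reduced fluorescence (ex 328 nm, em 415 nm) as inhibitor concentration rose, with 4 μM substrate I cleaved at Gly-Leu. Room-temperature incubation in pH 7.5 Tris buffer with 10 mM CaCl2; the E. coli-expressed, refolded MMP-14 catalytic domain was activated with trypsin or APMA.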

Setting [3] is: substrate (II) 4 μM, 1 hr room temperature, apparent Ki, values in parenthesis.

Values joined by “and” are separate entries in the source; they are usually repeats but may differ in a detail not shown here. Equal values may be shown once. Where a name gives a salt, the structure may show the parent alone.

T3 sequence (P14780 107-707 limits assumed): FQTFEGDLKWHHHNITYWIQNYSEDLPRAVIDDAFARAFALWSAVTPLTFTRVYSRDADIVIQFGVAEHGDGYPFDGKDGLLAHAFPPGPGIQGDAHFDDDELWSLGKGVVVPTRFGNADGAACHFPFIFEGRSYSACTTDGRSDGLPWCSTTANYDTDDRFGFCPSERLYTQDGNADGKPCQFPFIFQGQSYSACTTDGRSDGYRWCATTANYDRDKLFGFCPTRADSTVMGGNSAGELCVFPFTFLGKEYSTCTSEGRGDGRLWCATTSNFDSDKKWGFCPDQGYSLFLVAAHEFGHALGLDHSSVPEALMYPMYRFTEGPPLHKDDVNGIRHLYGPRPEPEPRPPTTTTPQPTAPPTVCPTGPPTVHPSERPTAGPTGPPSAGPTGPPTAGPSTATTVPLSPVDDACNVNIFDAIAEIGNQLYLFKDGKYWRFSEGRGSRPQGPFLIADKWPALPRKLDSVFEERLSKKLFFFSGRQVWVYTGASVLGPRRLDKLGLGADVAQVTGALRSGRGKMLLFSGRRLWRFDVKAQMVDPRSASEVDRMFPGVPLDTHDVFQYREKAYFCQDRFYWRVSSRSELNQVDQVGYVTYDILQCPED

As for `O=C(NO)C1(S(=O)(=O)c2ccc(OCCCc3cccc(-c4ccc(F)cc4)c3)cc2)CCOCC1` [Example 39], the figures for the Ki on Human recombinant MMP-1 (setting [3]), at Human recombinant MMP-14 [1] (setting [3]) and at Human recombinant MMP-9 (setting [3]) were over 10 µM, over 10 µM and 2.36 µM, respectively.
With `COCCN1CCC(C(=O)NO)(S(=O)(=O)c2ccc(OCCCc3cc(-c4ccc(F)cc4F)cs3)cc2)CC1` [Example 47, 4-[(4-{3-[4-(2,4-difluorophenyl)thien-2-l]propoxy}phenyl)sulfonyl]-N-hydroxy-1-(2-methoxyethyl)piperidine-4-carboxamide Hydrochloride], the Ki on Human recombinant MMP-1 (setting [3]) is over 10 µM; on Human recombinant MMP-14 [1] (setting [3]), 3.32 µM and 5.29 µM; on Human recombinant MMP-9 (setting [3]), 0.119 µM and 0.309 µM.
One may read the IC50 as the concentration that gives 50% inhibition. As to `COCCN1CCC(C(=O)NO)(S(=O)(=O)c2ccc(OCCCn3nnc(-c4ccc(OC(F)(F)F)cc4)n3)cc2)CC1` [Example 48], on Human recombinant MMP-14 [2] (substrate (I) 4 μM, room temperature, values not in parenthesis), the IC50 was over 10 µM. Moreover, the Ki at Human recombinant MMP-9 (setting [3]) amounted to 0.159 µM.
In the case of `NC(=O)c1cccc(OCCOc2ccc(S(=O)(=O)C3(C(=O)NO)CCOCC3)cc2)c1` [Example 54], the Ki on Human recombinant MMP-1 (setting [3]) is over 10 µM; on Human recombinant MMP-14 [1] (setting [3]) it was 4.12 µM; at Human recombinant MMP-9 (setting [3]) it was 0.388 µM.
As for `O=C(NO)C1(S(=O)(=O)c2ccc(OCCCc3cccc(-c4ccco4)c3)cc2)CCOCC1` [Example 97], the figures for the Ki at Human recombinant MMP-1 (value in parenthesis), on Human recombinant MMP-14 [1] (value in parenthesis) and on Human recombinant MMP-9 (value in parenthesis) were 7.36 µM, over 10 µM and 0.473 µM, respectively.
In the same order, the values of `O=C1Nc2ccc(-c3noc(CCCOc4ccc(S(=O)(=O)C5(C(=O)NO)CCN(C6CC6)CC5)cc4)n3)cc21` [Example 142] are over 10 µM, over 10 µM and 0.31 µM.
In the same order, the values of `O=C(NO)C1(S(=O)(=O)c2ccc(OCCCc3cccc(-c4ccc(OC(F)(F)F)cc4)c3)cc2)CCOCC1` [Example 147] are over 10 µM, over 10 µM and 7.97 µM.
In the same order, the values of `O=C(NO)C1(S(=O)(=O)c2ccc(OCCCc3cccc(-c4ccccn4)c3)cc2)CCOCC1` [Example 148] are 8.79 µM, 5.15 µM and 0.427 µM.
As to `O=C(NO)C1(S(=O)(=O)c2ccc(OCCCc3cccc(-c4ccncc4)c3)cc2)CCOCC1` [Example 149], the Ki at Human recombinant MMP-1 (value in parenthesis) is over 10 µM; at Human recombinant MMP-14 [1] (value in parenthesis), 2.53 µM; at Human recombinant MMP-9 (value in parenthesis), 0.0945 µM.
With `CC(C)c1ccc(-c2cccc(CCCOc3ccc(S(=O)(=O)C4(C(=O)NO)CCOCC4)cc3)c2)cc1` [Example 160], the Ki on Human recombinant MMP-1 (value in parenthesis), at Human recombinant MMP-14 [1] (value in parenthesis) and on Human recombinant MMP-9 (value in parenthesis) was over 10 µM each time.
Turning to `O=C(NO)C1(S(=O)(=O)c2ccc(OCCCc3cccc(-c4cccc(F)c4)c3)cc2)CCOCC1` [Example 161], the Ki at Human recombinant MMP-1 (value in parenthesis) was over 10 µM; on Human recombinant MMP-9 (value in parenthesis), 1.73 µM. The 50% inhibitory concentration (IC50) at Human recombinant MMP-14 [2] (value outside parenthesis) is over 10 µM.
As for `O=C(NO)C1(S(=O)(=O)c2ccc(OCCCc3cccc(-c4ccccc4Cl)c3)cc2)CCOCC1` [Example 162], the Ki on Human recombinant MMP-1 (value in parenthesis) was over 10 µM; at Human recombinant MMP-14 [1] (value in parenthesis), over 10 µM; on Human recombinant MMP-9 (value in parenthesis), 3.15 µM.

These data come from patent US20040024024A1, “Aromatic sulfone hydroxamates and their use as protease inhibitors” (priority 2001, published 2004).
